# Article PMC4096222 (Journal of Medicinal Chemistry, 2014)
# Read-outs that look alike come from different tables or passages of the source.
# Legend:
# [1] = system: A/PR/8/34 (A/H1N1); type: cell-based, influenza A virus
# [2] = system: A/HK/7/87; type: cell-based, influenza A virus; settings: for inhibition of plaque formation: at 0.5–2 μM, 72 h
# [3] = system: MDCK cells; settings: for concentration at which visibly toxic: MDCK cells; for cytotoxicity MCC: minimum cytotoxic concentration, minimal alterations in cell morphology after 72 h, MDCK
# [4] = biological target: A/M2 wt (Influenza A virus, UniProt P0DOF5); type: cell-based
# Sequence of A/M2 wt (P0DOF5 whole entry, looked up): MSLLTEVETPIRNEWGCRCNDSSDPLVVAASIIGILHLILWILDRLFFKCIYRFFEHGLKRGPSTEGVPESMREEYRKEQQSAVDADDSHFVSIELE
# [5] = system: A/HK/7/87 (A/H3N2); test: microbe, parasite or virus in culture; type: cell-based; settings: Influenza A virus, H3N2, MDCK, 72 h, read-out: antiviral EC50 values against A/HK/7/87 (range)
# [6] = read-out: antiviral activity A/PR/8/34 EC50 (CPE)
# [7] = read-out: antiviral activity A/PR/8/34 EC50 (MTS)
Structure (SMILES),"EC50 [1, 6]","EC50 [1, 7]",reduction in plaque size or number [2],concentration at which visibly toxic [3],inhibition of wt channel [4],inhibition of plaque formation [2],cytotoxicity MCC [3],activity on A/M2 channels [4],activity in virus yield and plaque reduction assays [2],EC50 [5]
"C1CC2C1C1CCC2C2CNCC12.Cl (centres unmarked) [compound 12, 4-Azatetracyclo[5.4.2.0^2,6.0^8.11]tridecane Hydrochloride]",> 100 µM,> 100 µM,clear,2 to 8 µM,potent low-micromolar inhibitors,,,,,
"NC12CC3CC(CC(C3)C1)C2 [amantadine, reference compound]",,34 µM,,,,,,,,
"Cl.N=C(N)N1CC2C3C=CC(C4C=CC43)C2C1 (centres unmarked) [compound 13, 4-Amidino-4-azatetracyclo[5.4.2.0^2,6.0^8.11]trideca-9,12-diene Hydrochloride]",> 100 µM,> 100 µM,,,potent low-micromolar inhibitors,visible inhibition of plaque formation,20 µM,,,
"C1CC(N2CC3C4CCC(C5CC45)C3C2)CCN1.Cl (centres unmarked) [compound 9, 4-(4-Piperidinyl)-4-azatetracyclo[5.3.2.0^2,6.0^8.10]dodecane Dihydrochloride]",> 100 µM,> 100 µM,,,,,20 µM,did not display any activity,,
"C1CC2C3CNCC3C1C1CC21.Cl (centres unmarked) [compound 6, 4-Azatetracyclo[5.3.2.0^2,6.0^8.10]dodecane Hydrochloride]",> 100 µM,> 100 µM,,,potent low-micromolar inhibitors,,100 µM,,confirmed the activity,3 to 8 µM
"CC12CC34CN(C(=N)N)CC35CC1(C)C(C)(C5)C2(C)C4.Cl (centres unmarked) [compound 19, 3-Amidino-7,8,9,10-tetramethyl-3-azapentacyclo[7.2.1.1^5,8.0^1,5.0^7,10]tridecane Hydrochloride]",> 100 µM,> 100 µM,,,,,≥4 µM,,,
"CC12CC34CNCC35CC1(C)C(C)(C5)C2(C)C4.Cl (centres unmarked) [compound 18, 7,8,9,10-Tetramethyl-3-azapentacyclo[7.2.1.1^5,8.0^1,5.0^7,10]tridecane Hydrochloride]",,,,,,visible inhibition of plaque formation,100 µM,,,
"Cl.N=C(N)N1CC2C3CCC(C4CC34)C2C1 (centres unmarked) [compound 7, 4-Amidino-4-azatetracyclo[5.3.2.0^2,6.0^8.10]dodecane Hydrochloride]",> 100 µM,> 100 µM,,,potent low-micromolar inhibitors,,100 µM,,,
"C1=CC2C3CC3C1C1CN(C3CCNCC3)CC21.Cl (centres unmarked) [compound 8, 4-(4-Piperidinyl)-4-azatetracyclo[5.3.2.0^2,6.0^8.10]dodec-11-ene Dihydrochloride]",≤ 0.8 µM,< 0.8 µM,,,,,100 µM,did not display any activity,,
"C1=CC2C3CNCC3C1C1CC21.Cl (centres unmarked) [compound 4, 4-Azatetracyclo[5.3.2.0^2,6.0^8.10]dodec-11-ene Hydrochloride]",> 100 µM,> 100 µM,,,potent low-micromolar inhibitors,,100 µM,,confirmed the activity,3 to 8 µM
"Cl.N=C(N)N1CC2C3C=CC(C4CC34)C2C1 (centres unmarked) [compound 5, 4-Amidino-4-azatetracyclo[5.3.2.0^2,6.0^8.10]dodec-11-ene Hydrochloride]",> 100 µM,> 100 µM,,,potent low-micromolar inhibitors,,100 µM,,,
"Cl.N=C(N)N1CC2C3CCC(C4CCC43)C2C1 (centres unmarked) [compound 14, 4-Amidino-4-azatetracyclo[5.4.2.0^2,6.0^8.11]tridecane Hydrochloride]",> 100 µM,> 100 µM,modest,2 to 8 µM,potent low-micromolar inhibitors,,4 µM,,,
"C1=CC2C1C1C=CC2C2CNCC12.Cl (centres unmarked) [compound 11, 4-Azatetracyclo[5.4.2.0^2,6.0^8.11]trideca-9,12-diene Hydrochloride]",,< 0.8 µM,,,potent low-micromolar inhibitors,visible inhibition of plaque formation,,,,
